Laboratory results reported in patent US10813920B2, “Drug for treating corneal endothelium by promoting cell proliferation or inhibiting cell damage” (THE DOSHISHA, priority 2013, dated 2020).

Key:
[1] = tested on: human corneal endothelial cells; assay: BrdU uptake ELISA in cultured human corneal endothelial cells (Example 2); type: cell-based; settings: ELISA after 3 days; 1, 3, 10, 30 μM; relative to control
Experimental: *The amount of IL-6 expression of human corneal endothelial cells was quantified by RT-PCR by the following method. Human corneal endothelial cells (n=3, passage 5) were cultured for 20 days in the presence of 10 μM of SB203580, and then RNA was extracted with RneasyMini (QIAGEN). 277 ng of total RNA was reverse-transcribed with RevertraAce (Toyobo) and cDNA synthesized into a template to perform PCR. 10 μl of PCR solution containing 1 μl of reaction mixture from single strand cDNA synthesis was heated for 1 minute at an initial temperature of 94° C. and then 1 minute at 94° C., 30 seconds at 54° C., and 30 seconds at 72° C. The temperature cycle was repeated 30 times. IL-6 sense primer: […] (SEQ ID NO: 1) IL-6 antisense primer: […] (SEQ ID NO: 2) *ELISA (BrdU): Cells were seeded on a 96-well culture plate at a seeding density of 5000 cells/well. […] The reaction was stopped with 1M sulfuric acid to measure the absorbance at 450 nm with a plate reader. […] The amount of IL-6 protein in a culture supernatant collected after 7 days was quantified in accordance with the manual of DuoSetELISA human IL-6 (R & D Cat # DY206). […] The plate was washed and the bound peroxidase was detected with a substrate solution (R&D Systems Cat # DY999). The coloring reaction was stopped with 2M of H2SO4 to read out the plate with Multimax (Promega) at […]. […]

[2] = tested on: human corneal endothelial cells; assay: IL-6 production by RT-PCR and ELISA; type: cell-based; settings: 10 μM, cultured for 20 days
Experimental: *PCR: PCR was carried out on each laminin chain and integrin chain by RT-PCR (reverse transcription polymerase chain reaction). A primer was purchased from the oligonucleotide synthesis company INVITROGEN and then desalinized for use. RNEasy Mini Kit (QIAGEN, catalog number: 74106) was used for extracting the entire RNA from cells. The Descemet's membrane including corneal endothelial cells were peeled off from a cornea for research purchased from the Seattle Eye Bank and the corneal endothelial cells were mechanically peeled off with the basal membrane for use in RNA extraction from the corneal endothelial cells. […]
Electrophoresis is applied to an amplified DNA fragment with 1.5% agarose gel (Nacalai Tesque, catalog number: 01149-76) and the fragment was detected by staining with ethidium bromide (Nacalai Tesque, catalog number: 14603-51).
*The amount of IL-6 expression of human corneal endothelial cells was quantified by RT-PCR by the following method. […] The reaction was stopped with 1M sulfuric acid to measure the absorbance at 450 nm with a plate reader. […] The amount of IL-6 protein in a culture supernatant collected after 7 days was quantified in accordance with the manual of DuoSetELISA human IL-6 (R & D Cat # DY206). […]

## C[S+]([O-])c1ccc(-c2nc(-c3ccncc3)c(-c3ccc(F)cc3)[nH]2)cc1 (stereo not drawn) [SB203580, 4-(4-fluorophenyl)-2-(4-methylsulfinylphenyl)-5-(4-pyridyl)-1H-imidazole]
[1]
  BrdU uptake: significantly promoted
[2]; RT-PCR
  IL-6 production (PCR): decreases relative to the control
[2]; supernatant collected after 7 days
  IL-6 production (ELISA): decreases relative to the control
